Measurements taken from PubChem BioAssay AID2305 (GlaxoSmithKline (GSK), 2010).

system: P. falciparum 3D7 growth, pLDH absorbance; experiment: blood-stage malaria parasite growth potency – strain 3D7, dose response (AID 2305)

Row | SMILES | IC50 [µM]
1 | c1ccc2c(C3CCN(CCCCOc4ccc5c(c4)CCN(C4CCC4)CC5)CC3)c[nH]c2c1 | 0.71
2 | O=C(c1cccs1)N(Cc1cccc(-c2ccc(CNCCc3ccccc3)cc2)c1)C1CCN(Cc2ccccc2)CC1 | 0.86
3 | Clc1ccc2nnc(-c3c(Cl)cccc3Cl)n2n1 | 0.91
4 | COc1ccc(C2CCN(CCN3CCC(NC(=O)c4cccc(-c5ccncc5)c4)CC3)CC2)c(OC)c1 | 0.8
5 | c1ccc(Oc2ccc(Nc3ccnc4c(-c5ccccn5)cccc34)cc2)cc1 | 0.99
6 | O=C(COc1ccc(Cl)cc1)N1CCC(CN2CCC(c3c[nH]c4ccccc34)CC2)CC1 | 1.1
7 | O=C(Nc1ccc(N2CCCN(Cc3cccc(F)c3)CC2)cc1)c1ccccc1 | 0.96
8 | O=C(NC1CCN(Cc2ccccc2)CC1)c1ccc(-c2nc3cc(Cl)c(Cl)cc3[nH]2)s1 | 0.31
9 | CCc1ccc(-n2c(=O)c3cccnc3n2CC(=O)NC2CCCC2)cc1 | 0.92
10 | COc1ccc(NC(=O)[C@H](CC(C)C)Nc2cc(C)nc(NCCc3cccs3)n2)cc1 | 0.96
11 | Cc1cccc2[nH]c(-c3cccc(-c4ccc(NC(=O)Nc5ccc(Cl)c(Cl)c5)cc4)c3)nc12 | 0.57
12 | CC[C@H]1CN2CC[C@@H]1C[C@H]2[C@H](O)c1cc(N2CCC(N3CCCCC3)CC2)nc2ccc(OC)cc12 | 0.27
13 | Cc1ccc(C2(CN3CCC(NC(=O)c4ccn[nH]4)CC3)CCCCC2)cc1 | 0.22
14 | Cc1cccc(CNc2nc(C)cc(N[C@@H](Cc3ccccc3)C(=O)NCCc3ccccc3)n2)c1 | 0.67
15 | CC(C)CC(NC(=O)c1ccc(F)cc1)C(=O)N[C@H](/C=N/N1CCNC1=O)CC(C)C (stereo partly drawn) | 1.03
16 | CCOC(=O)c1c(C)n(-c2ccccc2)c2ccc(O)cc12 | 0.47
17 | O=[N+]([O-])c1cccc(C=NNc2nc(Nc3ccccc3)nc(Nc3ccccc3)n2)c1 | 0.97
18 | O=C(Nc1ccc2ccccc2c1)N1CCC(NCc2cccc([N+](=O)[O-])c2)CC1 | 0.86
19 | COc1cccc(Nc2nc(N)c3ccccc3n2)c1 | 0.93
20 | O=C(Nc1cc(Cl)ccc1O)c1ccc(Oc2ccc(C(=O)Nc3cc(Cl)ccc3O)cc2)cc1 | 0.92
21 | CC[C@H](C)CNC(=O)c1cncc(-c2ccc(CN(C)C3CCN(C)CC3)cc2)c1 | 0.99
22 | CCCCCc1cc(OCCN(C)C)cc2c1C(=O)CC(C)(C)O2 | 0.1
23 | COCCCNC(=O)[C@H]1CNCCN1C(=O)c1ccccc1 | 0.8
24 | CN1CCCN(Cc2ccc(-c3ccc(NC(=O)c4cccc(C#N)c4)cc3)cc2)CC1 | 0.88

Row | SMILES | IC50 [µM]
25 | COc1ccc(NC(=O)/C=C/c2ccc(Cl)c(Cl)c2)cc1N1CCN(C)CC1 | 0.98
26 | Clc1ccccc1/C=C/c1cncnc1Nc1ccc2nc(Cc3ccccc3)[nH]c2c1 | 0.92
27 | Cc1cc(OCC2CCN(c3ncc(C(=O)Nc4ccccc4)cc3Cl)CC2)ccc1F | 0.9
28 | Cc1cc(NC(=O)c2ccco2)ccc1OC1CCN(Cc2ccc(C#N)cc2)CC1 | 0.5
29 | COc1nc2c(N3CCN(CCNCc4ccc5c(n4)NC(=O)CS5)CC3)ccnc2cc1F | 0.71
30 | Cc1cc(C2CCN(CCCCNC(=O)c3ccc(-c4ccc(C#N)cc4)cc3)CC2)c(C)cc1OCCO | 0.81
31 | CCCCN(C(=O)c1ccccc1Cl)c1nnc(-c2ccccc2C)s1 | 1.02
32 | CC(=O)Nc1ccc(CN2CCc3ccc(NS(=O)(=O)c4cccc(OCc5ccc(Cl)cc5)c4)cc3CC2)s1 | 0.91
33 | O=C(Nc1ccc(-c2cccc(-c3nc4ccc(C(F)(F)F)cc4[nH]3)c2)cc1)c1cccnc1 | 0.72
34 | COc1ccc2[nH]cc(C3C[C@H]4CC[C@@H](C3)N4CCC3CCN(C(=O)/C=C/c4ccc(Cl)c(Cl)c4)CC3)c2c1 (stereo partly drawn) | 0.62
35 | NCCC(=O)Nc1ccc(-c2cnc3[nH]cc(-c4ccc(C(=O)O)cc4)c3c2)cn1 | 0.84
36 | COc1cc(NCC(O)CNc2cc(Cl)nc3ccccc23)nc2ccccc12 (stereo not drawn) | 0.42
37 | COc1ccc(CC(=O)NC(CCN2CCC3(CCc4ccccc43)CC2)c2ccc(Cl)c(Cl)c2)cc1 (stereo not drawn) | 0.53
38 | Cc1cc(-c2nc3ccc(CN4CCN(C)CC4)cc3[nH]2)nn1Cc1cc(Cl)ccc1OCc1ccccc1 | 1.12
39 | CCc1nc(N)nc(N)c1-c1ccc(F)cc1 | 0.41
40 | Cc1ccc(NC(=O)c2cc(S(=O)(=O)NC(C)(C)C)ccc2C)nc1 | 0.76
41 | Oc1ccc2[nH]c(-c3cccc(F)c3)nc2c1CN1CCCC1 | 0.8
42 | c1cc(-c2ccc(CN3CCCCC3)cc2)cc(-c2nc3ccccc3[nH]2)c1 | 0.58
43 | O=C(CN1CCCC1)Nc1cccc(C(=O)Nc2cccc(C(F)(F)F)c2)c1 | 0.51
44 | Cc1cccc2[nH]c(-c3cccc(-c4ccc(NC(=O)c5ccncc5)cc4)c3)nc12 | 0.5
45 | OC(CN1CCN(Cc2ccccc2)CC1)Cn1c(-c2ccccc2)c(-c2ccccc2)c2ccccc21 (stereo not drawn) | 0.71
46 | CCn1c(SCc2ccccc2)nc2c1c(=O)[nH]c(=O)n2C | 0.24
47 | COc1ccc(CCn2c(=N)c(C(=O)NCc3ccccc3)cc3c(=O)n4ccccc4nc32)cc1 | 0.75
48 | NC1=NC(c2ccccc2)(c2ccccc2)C(=O)N1CC=Cc1ccccc1 | 0.6
